Measurements: PubChem BioAssay (NCI)
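Each compound was tested at five concentrations against cells in 96-well plates for 48 hours. GI50 is the concentration that inhibits growth by half. TGI denotes the concentration required for complete inhibition of growth.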

What was measured:
Experiment in all cases: DTP human tumour cell line panel, 48 h
[1] = system: A549 NSCLC
[2] = system: CAKI-1 renal
[3] = system: EKVX NSCLC
[4] = system: HCT-116 colon
[5] = system: KM12 colon
[6] = system: MDA-MB-435
[7] = system: NCI/ADR-RES ovarian
[8] = system: OVCAR-4 ovarian
[9] = system: SR leukemia
[10] = system: U251 CNS

| Compound | GI50 [1] | TGI [1] | GI50 [2] | TGI [2] | GI50 [3] | TGI [3] | GI50 [4] | TGI [4] | GI50 [5] | TGI [5] | GI50 [6] | TGI [6] | GI50 [7] | TGI [7] | GI50 [8] | TGI [8] | GI50 [9] | TGI [9] | GI50 [10] | TGI [10] |
| --- | --- | --- | --- | --- | --- | --- | --- | --- | --- | --- | --- | --- | --- | --- | --- | --- | --- | --- | --- | --- |
| C=C1C(=O)O[C@H]2[C@H]1CC/C(COC(=O)NCCCCCCCCNC(=O)OC/C1=C/CC[C@@]3(C)O[C@H]3[C@H]3OC(=O)C(=C)[C@@H]3CC1)=C\CC[C@@]1(C)O[C@@H]21 | 1.7 µM | 3.51 µM | 0.657 µM | 2.02 µM | 1.19 µM | 2.44 µM | 0.198 µM | 0.407 µM | 1.29 µM | 3.11 µM | 0.241 µM | 0.686 µM | 3.91 µM | 18.7 µM | 0.521 µM | 1.86 µM | 0.317 µM | 1.51 µM | 0.578 µM | 2 µM |
| CN1CCN(Cc2ccc(NC(=O)c3cncc(C#Cc4cnc(N)c5cnccc45)c3)cc2C(F)(F)F)CC1 | 0.511 µM | 7.79 µM | 0.979 µM | 6.61 µM | 0.485 µM | 4.4 µM | 0.142 µM | 1.74 µM | 0.0169 µM | 5.53 µM | 0.115 µM | 1.65 µM | 6.02 µM | 15.9 µM | 0.129 µM | 7.52 µM | 0.229 µM | 2.97 µM | 0.209 µM | 7.62 µM |
| CCCN1CCC(c2ccc(Nc3nc(Nc4cc(F)ccc4C(N)=O)c4cc[nH]c4n3)c(OC)c2)CC1 | 0.154 µM | 4.68 µM | 3.16 µM | 9.56 µM | 0.725 µM | 8.18 µM | 0.178 µM | 3.61 µM | 2.88 µM | 6.12 µM | 0.852 µM | 5.86 µM | 3.2 µM | 8.37 µM | 4.1 µM | 13.1 µM | 0.0131 µM | 4.54 µM | 0.509 µM | 1.97 µM |
| O=[N+]([O-])c1ccc(Sc2ccncn2)c([N+](=O)[O-])c1 | 4.3 µM | 16.4 µM | 0.602 µM | 1.93 µM | 2.39 µM | 8.3 µM | 0.726 µM | 2 µM | 2.75 µM | 9 µM | 2.5 µM | 8.56 µM | 4.46 µM | 14.1 µM | 2.78 µM | 11.3 µM | 0.75 µM | 3.53 µM | 5.47 µM | 17.8 µM |
| COc1cccc(Nc2nccc(-c3cnn4ncccc34)n2)c1 | 0.0698 µM |  | 0.0573 µM | 3.77 µM | 0.0709 µM |  | 0.0478 µM | > 11 µM | 0.0629 µM | 0.367 µM | 0.0609 µM | 0.25 µM | 0.0679 µM |  | 0.0903 µM | 17.8 µM | 0.0114 µM | 0.0946 µM | 0.0553 µM | 9.24 µM |
| C/C(=N/Nc1nc(C)cc(=O)[nH]1)C(=O)O |  | > 100 µM |  | > 100 µM |  | > 100 µM |  | > 100 µM |  | > 100 µM |  | > 100 µM |  | > 100 µM |  | > 100 µM |  | > 100 µM |  | > 100 µM |
| C[CH2][Sn]([CH2]C)([O]C(=O)c1ccc(OC)c(OC)c1OC)[O]C(=O)c1ccc(OC)c(OC)c1OC | > 100 µM | > 100 µM | 14.7 µM | 30.6 µM | > 100 µM | > 100 µM | > 100 µM | > 100 µM | > 100 µM | > 100 µM | > 100 µM | > 100 µM | > 100 µM | > 100 µM | > 82.6 µM | > 100 µM | 48 µM | > 100 µM | > 75.8 µM | > 100 µM |
